“Also recorded” adds a separate entry of the source. Blank lines part the entries; values can stand above or below the molecule they belong to. Peptide text beside a SMILES is read from it.
How the values were obtained:
[1] = Disappearance of Ang-(1-12) added to nonstabilized human plasma incubated at 37 °C; assay type: in vitro ADME; conditions: LC-MS/MS
Description: MS/MS transitions were as follows:
Signals for all 4 analytes were recorded simultaneously in all samples to show the specificity of the gained signals. […] The lower limit of quantification was 2 fmol/mL in blood and 10 fmol/g in tissue (ie, 3 pg/mL and 15 pg/g, respectively). Ang I, Ang II, Ang III, Ang IV, Ang-(1-7), and Ang-(1-5) were determined by LC-MS/MS as described before.[27],[28]
A rapid collection of blood in 6 mol/L guanidine hydrochloride was chosen for blood collection since this allowed a full recovery of spiked Ang-(1-12; Figure 1A). Importantly, Ang-(1-12) remained undetectable when incubating nonstabilized plasma at 37 °C (Figure 1B), while Ang-(1-12) added to nonstabilized human plasma disappeared almost completely (>80%) within 10 minutes during incubation at 37 °C (Figure 1B). Stabilized human blood samples contained Ang I and Ang II, but Ang-(1-12) was not detectable (Figure 2C). Plasma obtained from the same patients contained normal renin and angiotensinogen levels (Figure 2A and 2B).[29],[30]

[2] = Recovery of spiked Ang-(1-12) from blood collected in 6 mol/L guanidine hydrochloride; assay type: in vitro ADME; conditions: human blood collected in 6 mol/L guanidine hydrochloride; LC-MS/MS with stable isotope-labeled IS
[3] = Metabolism of Ang-(1-12) in 1:10 diluted human plasma with and without enzyme inhibitors; conditions: 37 °C; for Angiotensin metabolite generated from Ang-(1-12), aliskiren + lisinopril / Angiotensin metabolite generated from Ang-(1-12), aliskiren: 60 min after adding 1000 ng/mL Ang-(1-12), t=0 level subtracted; for Angiotensin metabolite generated from Ang-(1-12), aliskiren + lisinopril: aliskiren 10 µmol/L + lisinopril 10 µmol/L; for Angiotensin metabolite generated from Ang-(1-12), aliskiren: aliskiren 10 µmol/L
Description: Heparin plasma was obtained from 3 healthy volunteers (1 woman, 2 men; age range 30–40 years). The plasma was incubated for 1 hour at 37 °C, in the absence or presence of the renin inhibitor aliskiren (10 µmol/L), the ACE inhibitor lisinopril (10 µmol/L), the chymase inhibitor chymostatin (10 µmol/L), the aminopeptidase A inhibitor amastatin (10 µmol/L), the neprilysin inhibitor sacubitrilat (LBQ-657, 10 µmol/L), or the prolyl oligopeptidase inhibitor ZPP (20 µmol/L). All inhibitors were from Sigma Aldrich, St. Louis, MO. Next, the plasma was diluted 1:10 in PBS (t=0) and incubated again for 1 hour at 37 °C (t=60) with 1000 ng/mL Ang-(1-12; Sigma Aldrich). Samples at 0 and 60 minutes were collected in 6 mol/L guanidine hydrochloride, and angiotensins were quantified by LC-MS/MS.
Human ([sequence], molecular weight: 1508.8 Da) and murine ([sequence], molecular weight: 1572.8 Da) Ang-(1-12) were quantified by LC-MS/MS. […] The powder was dissolved by cooled sonication using a 2-mm microtip (Sonics and Materials, Newton, NJ). Stable isotope-labeled IS for human and murine Ang-(1-12)–containing isoleucine C^13/N^15 (mass +7) at [Ile5] were spiked to tissue homogenates and stabilized blood samples at 1000 pg/mL for internal standardization. The samples then underwent C18-based solid-phase extraction for purification before being subjected to liquid chromatography using a reversed-phase analytical column operating in line with a Xevo TQ-S triple quadruple mass spectrometer (Waters). Two independent MS/MS transitions based on the mass-to-charge ratio of the parent (+3) and fragment ions (+2) were recorded for each analyte and IS simultaneously. Signals from IS were used to correct for peptide recovery in the sample preparation procedure and matrix signal suppression for each analyte in each individual sample.
Data are provided as individual values and means. Statistical analysis was done by the Student’s t test or by ANOVA, followed by post hoc correction according to Dunnett.

neprilysin = experiment: renal cortical membranes; conditions: cited from earlier work
chymase = experiment: intracellular, eg, at tissue sites; conditions: cited from earlier work
[4] = test system: angiotensin-converting enzyme (ACE); experiment: extracellular, eg, in blood; conditions: cited from earlier work
[5] = Heparin plasma from 3 healthy volunteers, diluted 1:10 in PBS; conditions: human, 37 °C, up to 60 minutes
[6] = 1:10 diluted human plasma, LC-MS/MS

Molecule: CC[C@H](C)[C@H](NC(=O)[C@@H](NC(=O)[C@H](CC(C)C)NC(=O)[C@H](Cc1c[nH]cn1)NC(=O)[C@H](Cc1ccccc1)NC(=O)[C@@H]1CCCN1C(=O)[C@H](Cc1c[nH]cn1)NC(=O)[C@@H](NC(=O)[C@H](Cc1ccc(O)cc1)NC(=O)[C@@H](NC(=O)[C@H](CCCNC(=N)N)NC(=O)[C@@H](N)CC(=O)O)C(C)C)[C@@H](C)CC)C(C)C)C(=O)O [Ang-(1-12), Angiotensin-(1-12)] (H-DRVYIHPFHLVI-OH)
- Fraction of added Ang-(1-12) that disappeared within 10 minutes ([1]; 10 minutes): > 80%
- metabolised at 10 min ([1]; 10 minutes, read-out: Fraction of added Ang-(1-12) that disappeared within 10 minutes): ~80%
- Time within which added angiotensin-(1-12) disappeared [1]: ≤ 10 min
- Recovery of spiked Ang-(1-12) [2]: full recovery
- Contribution of chymase to Ang-(1-12) metabolism ([3]; 1:10 diluted human plasma, 60 min, 1000 ng/mL, chymase inhibitor chymostatin 10 µmol/L, LC-MS/MS, n = 3): did not contribute to its metabolism
- Contribution of prolyl oligopeptidase to Ang-(1-12) metabolism ([3]; 1:10 diluted human plasma, 60 min, 1000 ng/mL, prolyl oligopeptidase inhibitor ZPP 20 µmol/L, LC-MS/MS, n = 3): did not contribute to its metabolism
- Disappearance of Ang-(1-12) in the presence of aliskiren ([3]; 1:10 diluted human plasma, 60 min, 1000 ng/mL, renin inhibitor aliskiren 10 µmol/L, LC-MS/MS, n = 3): unaltered
- Change in Ang-(1-12) recovery after inhibiting neprilysin ([3]; 1:10 diluted human plasma, 60 min, 1000 ng/mL, sacubitrilat (LBQ-657) 10 µmol/L, LC-MS/MS, n = 3): did not observe a change
- Change of Ang-(1-12) half-life on addition of lisinopril ([3]; 1:10 diluted human plasma, 60 min, 1000 ng/mL, subsequent addition of ACE inhibitor lisinopril 10 µmol/L, LC-MS/MS, n = 3): doubling the half-life
- Change of Ang-(1-12) half-life on addition of amastatin ([3]; 1:10 diluted human plasma, 60 min, 1000 ng/mL, subsequent addition of aminopeptidase A inhibitor amastatin 10 µmol/L, LC-MS/MS, n = 3): tripling the half-life
- Half-life of Ang-(1-12) corresponding to undiluted plasma ([3]; extrapolated from 1:10 diluted human plasma): < 3 min

- Angiotensin metabolite generated from Ang-(1-12), aliskiren + lisinopril [3, 6]: < 2 pg/mL
- Angiotensin metabolite generated from Ang-(1-12), aliskiren [3, 6]: 983 pg/mL
Molecule: CC[C@H](C)[C@H](NC(=O)[C@H](Cc1ccc(O)cc1)NC(=O)[C@@H](NC(=O)[C@H](CCCNC(=N)N)NC(=O)[C@@H](N)CC(=O)O)C(C)C)C(=O)O [Ang-(1-5)] (H-DRVYI-OH)

Molecule: angiotensin II (DRVYIHPF; Angiotensin-2; UniProt P01019 25-32, looked up) [Ang II]
- Angiotensin metabolite generated from Ang-(1-12), aliskiren + lisinopril [3, 6]: 417 pg/mL
- Angiotensin metabolite generated from Ang-(1-12), aliskiren [3, 6]: 7239 pg/mL

Molecule: DRVYIHPFHLVI
- fragment found (neprilysin): Ang-(1-7)
- fragment found (chymase): Ang II
- fragment found [4]: Ang I; also recorded: Ang II
- fragment found [5]: Ang I; also recorded: Ang II; also recorded: Ang-(1-5)

- Reduction in metabolite formation from Ang-(1-12) by ACE inhibition ([3]; 1:10 diluted human plasma, 60 min, aliskiren + lisinopril vs aliskiren): 50%
- Angiotensin metabolite generated from Ang-(1-12), aliskiren + lisinopril [3, 6]: 946 pg/mL
- Angiotensin metabolite generated from Ang-(1-12), aliskiren [3, 6]: 2238 pg/mL
Molecule: CC[C@H](C)[C@H](NC(=O)[C@H](Cc1ccc(O)cc1)NC(=O)[C@@H](NC(=O)[C@H](CCCNC(=N)N)NC(=O)[C@@H](N)CC(=O)O)C(C)C)C(=O)N[C@@H](Cc1c[nH]cn1)C(=O)N1CCC[C@H]1C(=O)O [Ang-(1-7)]
